One test has as its target T1, human α7 nAChR (Homo sapiens, UniProt P36544).
T1 construct: expressed in transfected cells; host or cells: GH4C1 cells (rat pituitary, ATCC CCL-82.2)
Nature of the test: Evaluation of PAM activity with human α7 nACh receptor stably expressing cells (aequorin luminescence, FDSS7000). In kind it is cell-based. Conditions: ACh at EC20; for PAM activity for α7 nAChR (in words): ratio of RLU (Max-Min) of test wells to control wells; for α7PAM (%) @ 10 μmol/L: test compound 10 μmol/L, ratio of RLU (Max-Min) of test-compound wells to control wells, human α7 nAChR expressing GH4C1 cells. The text has this: Evaluation of PAM Activity with Human α7 nACh Receptor Stably Expressing Cells
(1) Human α7 nAChR stably expressing cells
Human α7 nAChR stably expressing cells were generated and cultured. In detail, GH4C1 cells derived from rat pituitary (cat#CCL-82.2, ATCC, USA) were used as a host cell. PcDNA3.1Zeo vector containing a nucleotide sequence encoding a protein GenBank BAC81731 and pcDNA3.1 vector containing human α7 nAChR gene (cat#V790-20, invitrogen, Carlsbad, Calif., USA) were transfected to the cells to give aequorins and human α7 nAChR stably expressing cells respectively. The aequorins and human α7 nAChR stably expressing cells were screened with Zeocin (cat#R25001, invitrogen, Carlsbad, Calif., USA) and Geneticin (cat#10131-027, invitrogen, Carlsbad, Calif., USA) respectively.
The cells were cultured in F-10 Nutrient Mixture (Ham) medium (cat#11550-043, invitrogen, Carlsbad, Calif., USA) containing 2.5% fetal bovine serum (cat#2917354, ICN Biomedicals, Inc, USA), 15% inactivated horse serum (cat#26050-088, invitrogen, Carlsbad, Calif., USA), 1 μg/mL Geneticin, and 5 μg/mL Puromycin (cat#14861-84, invitrogen, Carlsbad, Calif., USA), in a Collagen Type 1-coated dish (cat#4030-010, iwaki, Tokyo, Japan). During the culture, the medium was replaced with fresh medium in every 2 to 3 days, and the cells were treated with TrypLE Express (cat#45604-021, invitrogen, Carlsbad, Calif., USA) to collect them in every 7 days. Thus, the cells were subcultured.
7 Days after subculturing, the cells were treated with TrypLE Express to collect them when they were about 80% confluent. The cells were suspended in a reaction medium containing Hanks (cat#14065-056, invitrogen, Carlsbad, Calif., USA)/20 mmol/L Hepes (cat#15630-080, invitrogen, Carlsbad, Calif., USA), Buffer (pH 7.4), F-10 Nutrient Mixture (Ham), and 0.1 mg/mL Geneticin, and the suspension was seeded in a 384-well plate (cat#781090, Greiner, Germany) at 20000 cells/25 μL per well.
On the next day after seeding, Viviren (cat#E649X, Promega, Madison, Wis., USA) was added to the medium so that the final concentration could be 4 μmol/L (15 μL/well). The plates were centrifuged and then placed in the dark for 4 hours at room temperature.
(2) Preparation of the Test Samples
Each of the test compounds was dissolved in DMSO to prepare each test sample at a concentration of 1000-fold the final concentration. To the solution was added Hanks/20 mM HEPES/0.2% BSA (cat#A3803, Sigma, St. Louis, Mo., USA), and the concentration was adjusted to 6-fold the final concentration.
(3) Evaluation of PAM Activity
FDSS7000 (Hamamatsu Photonics) was used to detect the luminescence signal evoked by α7 nAChR stimulation. The cells and a luminescent substrate were put on a plate, and the test sample was added thereto. […] After the addition of ACh, the luminescence signal (the central wavelength: 465 nm) was measured for 138 seconds to calculate RLU (Max-Min). The ratio of the RLU (Max-Min) of the test-compound-containing wells to that of the control wells was defined as PAM activity.

Another test concerns Slc: ddY mice. Briefly: Novel object recognition test with mice (mORT). In kind it is in vivo. Conditions: 0.3 mg/kg, 1.0 mg/kg or 3 mg/kg. On the procedure: Evaluation of Cognitive Function with Mice in Novel Object Recognition Test (Hereinafter, Referred to as “mORT”)
Slc: ddY mice (25 g to 30 g, male, Japan SLC) can be used in the novel object recognition test wherein the interval between the 1st trial (training) and the 2nd trial (test) correlates with the memory loss for the objects used in the 1st trial, and a significant memory-loss is observed when the 2nd trial is performed 24 hours after the 1st trial. According to the test mechanism, the present compounds were administered prior to the 1st trial, and the enhancement effect on memory in the 2nd trial was evaluated.

T1 sequence (P36544 23-502): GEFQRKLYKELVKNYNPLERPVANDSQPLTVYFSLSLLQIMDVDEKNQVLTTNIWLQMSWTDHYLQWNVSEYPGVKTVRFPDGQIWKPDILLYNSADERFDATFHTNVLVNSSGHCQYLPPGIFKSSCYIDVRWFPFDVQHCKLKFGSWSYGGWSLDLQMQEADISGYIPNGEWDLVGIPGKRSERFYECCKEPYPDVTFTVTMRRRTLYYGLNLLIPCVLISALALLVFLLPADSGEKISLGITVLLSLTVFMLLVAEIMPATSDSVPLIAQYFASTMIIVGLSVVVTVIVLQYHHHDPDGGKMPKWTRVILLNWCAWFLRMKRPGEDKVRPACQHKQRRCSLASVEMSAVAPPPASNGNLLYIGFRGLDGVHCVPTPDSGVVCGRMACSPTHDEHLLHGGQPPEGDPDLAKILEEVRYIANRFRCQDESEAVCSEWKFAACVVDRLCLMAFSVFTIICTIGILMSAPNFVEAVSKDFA

Regarding `CCc1ccc2c(cnn2C2CCN(C(=O)NC3CCC(F)(F)CC3)CC2)c1` [Example 23], on human α7 nAChR, the “PAM activity for α7 nAChR (in words)” value is “stronger PAM activity than others”.

For the compound `CO[C@H]1CC[C@H](NC(=O)N2CCC(n3ncc4cc(C)ccc43)CC2)CC1` [Example 1, N-(trans-4-methoxycyclohexyl)-4-(5-methyl-1H-indazol-1-yl)piperidine-1-carboxamide], at human α7 nAChR, the “α7PAM (%) @ 10 μmol/L” value was found to be 1209%. Also, the “efficacy at higher doses” value in the test with Slc: ddY mice is “the efficacy did not decrease”.

For `CCCc1ccc2c(cnn2C2CCN(C(=O)NC3CCOCC3)CC2)c1` [Example 15, 4-(5-propyl-1H-indazol-1-yl)-N-(tetrahydro-2H-pyran-4-yl)piperidine-1-carboxamide], at human α7 nAChR, the “α7PAM (%) @ 10 μmol/L” value is given as 1025%.

`O=C(Nc1ccc(C(F)(F)F)nc1)N1CCC(n2ncc3cc(C4CC4)ccc32)CC1` [Example 187]: at human α7 nAChR, the “α7PAM (%) @ 10 μmol/L” value is listed as 220%.

Take `O=C(NC1CCOCC1)N1CCC(n2ncc3cc(C(F)(F)F)ccc32)CC1` [Example 297]: at human α7 nAChR, the “α7PAM (%) @ 10 μmol/L” value is 340%.

On to `CO[C@H]1CC[C@H](NC(=O)N2CCC(n3ncc4cc(C5CC5)ccc43)CC2)CC1` [Example 74, 4-(5-cyclopropyl-1H-indazol-1-yl)-N-(trans-4-methoxycyclohexyl)piperidine-1-carboxamide], for which, on human α7 nAChR, the “α7PAM (%) @ 10 μmol/L” value worked out at 1226%. For the same compound, in the test with Slc: ddY mice, the “efficacy at higher doses” value is “the efficacy did not decrease”.

On to `CCc1ccc2c(cnn2[C@H]2CC[C@@H](NC(=O)C3CCCCC3)CC2)c1` [Example 119], for which, on human α7 nAChR, the “PAM activity for α7 nAChR (in words)” value is “stronger PAM activity than others”.

Turning to `CCc1ccc2c(cnn2[C@H]2CC[C@@H](NC(=O)[C@H]3CC[C@H](OC)CC3)CC2)c1` [Example 122], at human α7 nAChR, the “α7PAM (%) @ 10 μmol/L” value was found to be 410%.

Consider `Cc1ccc2c(c1)c(C)nn2C1CCN(C(=O)NC2CCC(F)(F)CC2)CC1` [Example 45, N-(4,4-difluorocyclohexyl)-4-(3,5-dimethyl-1H-indazol-1-yl)piperidine-1-carboxamide], for which the “α7PAM (%) @ 10 μmol/L” value at human α7 nAChR is 1576%.

Take `Cc1ccc2c(cnn2C2CCN(C(=O)N[C@H]3CCCC3(F)F)CC2)c1` [Example 80, (S)—N-(2,2-difluorocyclopentyl)-4-(5-methyl-1H-indazol-1-yl)piperidine-1-carboxamide]: the “α7PAM (%) @ 10 μmol/L” value on human α7 nAChR amounted to 1033%.

For `CCO[C@H]1CC[C@H](NC(=O)N2CCC(n3ncc4cc(C)ccc43)CC2)CC1` [Example 90, N-(trans-4-ethoxycyclohexyl)-4-(5-methyl-1H-indazol-1-yl)piperidine-1-carboxamide], the “α7PAM (%) @ 10 μmol/L” value at human α7 nAChR came to 1467%.

(Values after patent US9309221B2, “1-substituted indazole derivative” (Dainippon Sumitomo Pharma Co., Ltd., priority 2012, dated 2016).)
